Legend:
lysozyme [1] = target: T1, lysozyme (Gallus gallus, UniProt P00698); assay: Competition assay, competitor RNA against lysozyme activation of lys11-2; type: biochemical, hen; conditions: 3 μM competitor RNA, 2 μM lysozyme
Description: Competition assays. Ligation assays were performed as described above, using 10 pmol of [^32P]-body-labeled ribozyme (cyt7-2 or lys11-2; […]) and 20 pmol effector oligonucleotide (2 μM). The denatured and annealed RNA mixture was combined with ligation buffer, 20 pmol protein (Cyt18, lysozyme, or water in the case of (−) protein samples; 2 μM), and 30 pmol of denatured and annealed competitor RNA (3 μM). Competitor RNAs are as follows:
Where N=(A, G, C, U), and tRNA (from Yeast; Gibco BRL, Gaithersburg, Md.). […] Cyt18 reactions were incubated 5 min at 25° C. and lysozyme reactions were incubated 10 min. Reactions were terminated by the addition of 45 μl of SDS/urea stop mix (75 mM EDTA, 80% formamide, saturated urea, saturated SDS, 0.05% bromophenol blue, 0.05% xylene cyanol) and analyzed on 8% polyacrylamide gels containing 0.1% SDS as above.

lysozyme [2] = target: T1, lysozyme; assay: Filter binding assay with lysozyme; parameters: species or system hen; conditions: read-out: Kd of anti-lysozyme aptamer
Description: Binding assays. Binding assays were performed in triplicate by combining I pmol of [^32P]-body-labeled RNA, 20 pmol 18.90a, and varying amounts of target protein (1 pmol to 5 nmol) in 50 μl of ligation buffer. After incubation at room temperature for 30 min, the mixture was drawn under vacuum through a series of nitrocellulose and nylon filters and washed with 150 μl of ligation buffer. The ratio of protein-bound RNA versus free RNA was determined by analyzing the counts retained on the nitrocellulose filter versus the counts on the nylon filter.

3MeX2P6 = assay: Effector specificity of 3MeX2P6 in vitro and in vivo
Description: In vitro splicing assays. The assays were preformed by heating the RNA (500 nM) in H2O to 70° C. for 3 min then transferring to ice for 1 min. […] GTP (50 μM) was added to the remaining reaction (5 μl total volume) to start the splicing reaction. The reaction was incubated at 37° C. for 30 min and then terminated with stop dye (5 μl). The reactions were heated to 70° C. for 3 min and 5 μl was analyzed on an 8% denaturing polyacrylamide gel. The gel was dried, exposed to a phosphor screen and analyzed using a Molecular Dynamics Phosphorimager (Sunnyvale, Calif.). In vivo growth curves.

C600ThyA::Kan^R cells = test system: C600ThyA::Kan^R cells
Description: In vivo growth curves. Cells grown overnight in LB were diluted 1:100 in MM containing either theophylline, caffeine, 3-methylxanthine or no effector, and analyzed on a Microbiology Workstation Bioscreen C (Labsystems, Inc., Franklin, Mass.).

[3] = test system: Cyt 18-dependent population; assay: Specificity of activation of Cyt18-dependent ribozymes by proteins; type: biochemical
Description: (§1) Protein inactivation. Standard ligation assays were performed as described above, but in the presence of protein samples that had been pre-treated as follows. Cyt18 protein was denatured by heating for 10 min at 70° C. or by the addition of 6% SDS (0.7% SDS in ligation reaction). Lysozyme was heated 10 min at 100° C. or incubated 10 min at room temperature in the presence of 2 mM DTT (0.3 mM DTT final reaction) without inactivating the protein. The protein was successfully inactivated by heating for […] at 70° C. in the presence of 2 mM DTT. Ligation reactions were performed with 1.3 μM protein in 15 μl reactions incubated 5 min at 25° C.

Rev-dependent ligase = type: biochemical
Description: Ligation assays. Ligation assays were performed as described hereinabove.

[4] = test system: lysozyme-dependent clones; assay: Specificity of activation of lysozyme-dependent ribozymes by proteins; type: biochemical; conditions: lysozyme both reduced and denatured
Description: as §1

In the case of “cl: high affinity anti-lysozyme aptamer, SEQ ID NO:13 (GCGACTGGACATCACGAG; chemistry not given here)”, the “reduction of lysozyme activation of lys11-2 by competitor RNA” value (lysozyme [1]) is reported as “reduced activation to background levels” and the Kd (lysozyme [2]) is reported as 31 nM.

For O=c1[nH]c(=O)c2[nH]cnc2[nH]1 [xanthine], the “responsiveness of 3MeX2P6 variants to effector” value (“responsiveness” below) (3MeX2P6) was “nor were they responsive”.

With Cn1cnc2[nH]c(=O)[nH]c(=O)c21 [7-methylxanthine] the “responsiveness” value (3MeX2P6) was “nor were they responsive”.

In the case of Cn1c(=O)c2[nH]cnc2n(C)c1=O [theophylline], the “responsiveness” value (3MeX2P6) is reported as “no longer responsive”, the “concentration causing a decrease in growth of cells containing the parental td intron (toxic to cells)” value (C600ThyA::Kan^R cells; E. coli) is reported as “greater than 0.5 mM” and the “concentration that progressively decreases growth of cells with theophylline-dependent introns” value (C600ThyA::Kan^R cells; E. coli) is reported as “above 2 mM”.

In the case of Cn1c(=O)c2[nH]c(=O)[nH]c2n(C)c1=O [1,3-dimethyl urilic acid], the “responsiveness” value (3MeX2P6) is reported as “nor were they responsive”.

For Cn1c(=O)[nH]c2nc[nH]c2c1=O [1-methylxanthine], the “responsiveness” value (3MeX2P6) was “nor were they responsive”.

MS2 coat protein: non-cognate protein was tested, and the “activation of Cyt18-dependent ribozyme by non-cognate protein” value (“activation … by non-cognate protein” below) [3] was “No activation”.

In the case of Cn1c(=O)c2c(ncn2C)n(C)c1=O [caffeine], the “responsiveness” value (3MeX2P6) is reported as “nor were they responsive” and the “activation of growth of cells with td gene divided by Th2P6 by effector” value (C600ThyA::Kan^R cells) is reported as “not activated”.

With N=C(N)NCCC[C@H](N)C(=O)O [arginine] the “activation of the Rev-dependent ligase” value (Rev-dependent ligase) was “Activation was observed only with HIV Tat peptide”.

Cn1c(=O)[nH]c(=O)c2[nH]cnc21 [3-methylxanthine] was tested, and the “responsiveness” value (3MeX2P6) was “responsive”.

In the case of Cn1cnc2c1c(=O)[nH]c(=O)n2C [theobromine], the “responsiveness” value (3MeX2P6) is reported as “nor were they responsive”.

In the case of “E. coli tryptophanyl tRNA synthetase: non-cognate protein”, the “activation … by non-cognate protein” value [3] is reported as “No activation”.

O=c1[nH]cnc2nc[nH]c12 [hypoxanthine] was tested, and the “responsiveness” value (3MeX2P6) was “nor were they responsive”.

lysozyme: hen egg white lysozyme was tested, and the “activation of catalysis by inactivated lysozyme” value [4] was “unable to activate” and the “activation … by non-cognate protein” value [3] was “No activation”.
